The NIST ThermoML archive (doi:10.1016/j.jct.2011.09.007)
± gives the expanded uncertainty stated by the source.

Tests used:
[1] = refractive index (Na D-line) (dimensionless); settings: 298.15 K; 101.33 kPa; Liquid; Standard Abbe refractometry
[2] = Liquid; for mass density: 298.15 K, 101.33 kPa, Vibrating tube method; for vapor or sublimation pressure: Ebulliometric method (Recirculating still)

| refractive index [1] | mass density [2] [kg/m3] | vapor or sublimation pressure ([2]; 330 K) [kPa] | vapor or sublimation pressure ([2]; 340 K) [kPa] | vapor or sublimation pressure ([2]; 330.04 K) [kPa] | vapor or sublimation pressure ([2]; 331.02 K) [kPa] | vapor or sublimation pressure ([2]; 337.07 K) [kPa] | vapor or sublimation pressure ([2]; 340.05 K) [kPa] | vapor or sublimation pressure ([2]; 340.57 K) [kPa] | vapor or sublimation pressure ([2]; 343.73 K) [kPa] | vapor or sublimation pressure ([2]; 347.76 K) [kPa] | vapor or sublimation pressure ([2]; 351.12 K) [kPa] | vapor or sublimation pressure ([2]; 365.8 K) [kPa] | vapor or sublimation pressure ([2]; 371.23 K) [kPa] | vapor or sublimation pressure ([2]; 373.22 K) [kPa] | vapor or sublimation pressure ([2]; 375.59 K) [kPa] | vapor or sublimation pressure ([2]; 378.26 K) [kPa] | vapor or sublimation pressure ([2]; 381.01 K) [kPa] | vapor or sublimation pressure ([2]; 382.94 K) [kPa] | vapor or sublimation pressure ([2]; 384.94 K) [kPa] | SMILES |
| --- | --- | --- | --- | --- | --- | --- | --- | --- | --- | --- | --- | --- | --- | --- | --- | --- | --- | --- | --- | --- |
| 1.38894 ± 0.00072 | 687.79 ± 0.2 | 25.47 ± 0.16 | 36.64 ± 0.2 | – | – | – | – | – | – | – | – | – | – | – | – | – | – | – | – | CC(C)CC(C)(C)C [2,2,4-trimethylpentane] |
| 1.3974 ± 0.0007 | 798.8 ± 0.21 | 8.87 ± 0.04 | 13.55 ± 0.06 | 8.87 ± 0.04 | 9.28 ± 0.04 | 12.02 ± 0.05 | 13.58 ± 0.06 | 13.89 ± 0.06 | 15.78 ± 0.06 | 18.48 ± 0.07 | 21.02 ± 0.08 | 35.36 ± 0.11 | 42.49 ± 0.14 | 45.36 ± 0.15 | 49 ± 0.16 | 53.37 ± 0.18 | 58.22 ± 0.19 | 61.82 ± 0.2 | 65.74 ± 0.21 | CC(C)C(=O)C(C)C [2,4-dimethyl-3-pentanone] |
| 1.37504 ± 0.00072 | 780.91 ± 0.16 | 33.25 ± 0.23 | 52.97 ± 0.29 | – | – | – | – | – | – | – | – | – | – | – | – | – | – | – | – | CC(C)O [propan-2-ol] |
